Laboratory results reported in US20220409694A1, “POLYPEPTIDE, AND PREPARATION METHOD THEREFOR AND USE THEREOF” (SHANXI JINBO BIO-PHARMACEUTICAL CO., LTD., priority 2020, published 2022).

What was measured:
[1] = system: cell-cell fusion mediated by the S protein of 2019-nCoV; assay type: cell-based
[2] = target: T1, 2019-HR1P (derived from the HR1 region of 2019-nCoV) (Severe acute respiratory syndrome coronavirus 2, UniProt P0DTC2); assay: Native PAGE (N-PAGE) of polypeptide mixed with 2019-HR1P; assay type: binding; conditions: 30 μM each, 37° C. for 30 minutes
[3] = target: T1, 2019-HR1P (derived from the HR1 region of 2019-nCoV); assay: Circular dichroism spectroscopy of polypeptide mixed with 2019-HR1P; assay type: binding; conditions: 10 μM, phosphate buffer pH 7.2, 4° C.
[4] = system: SARS-CoV-2 live virus (nCoV-SH01 strain); assay: Inhibition of SARS-CoV-2 live virus on human intestinal cell line CaCO2 (viral RNA in supernatant); assay type: cell-based; conditions: CaCO2 cells, 48 hours, read-out: half inhibitory concentration, SARS-CoV-2 live virus
[5] = system: SARS-CoV-2 live virus (nCoV-SH01 strain); set-up: species or system transgenic human-ACE2 mice; conditions: in vivo
[6] = system: 2019-nCoV pseudovirus; conditions: for IC50: 72 h
[7] = system: SARS-CoV pseudovirus; conditions: 72 h
[8] = system: Rs3367-CoV pseudovirus; conditions: 72 h
[9] = system: WIV1-CoV pseudovirus; conditions: 72 h
[10] = system: 2019-nCoV live virus; conditions: for IC50: 72 h; for inhibitory activity relative to EK1, 2019-nCoV live virus: fold higher than EK1

| Molecule | inhibitory effect on cell-cell fusion mediated by the S protein of 2019-nCoV (in words) [1] | complex formation with 2019-HR1P in N-PAGE [2] | secondary structure of mixture with 2019-HR1P by circular dichroism [3] | IC50 [4] | SARS-CoV-2 viral load in the intestine [5] | SARS-CoV-2 viral load in the lung [5] | IC50 [6] | IC50 [7] | IC50 [8] | IC50 [9] | SARS-CoV-2 viral titer in the intestine [5] | SARS-CoV-2 viral titer in the lung [5] | IC50 [10] | inhibitory activity relative to EK1, 2019-nCoV live virus [10] | activity in pseudovirus inhibition experiments (in words) [6] |
| --- | --- | --- | --- | --- | --- | --- | --- | --- | --- | --- | --- | --- | --- | --- | --- |
| CC[C@H](C)[C@H](NC(=O)[C@H](C)NC(=O)[C@H](CCC(=O)O)NC(=O)[C@H](CCC(=O)O)NC(=O)[C@H](CC(C)C)NC(=O)[C@H](CCCCN)NC(=O)[C@H](CCCCN)NC(=O)[C@H](CCSC)NC(=O)[C@H](CCC(=O)O)NC(=O)[C@H](Cc1ccc(O)cc1)NC(=O)[C@H](CCC(=O)O)NC(=O)[C@H](CC(C)C)NC(=O)[C@H](CC(=O)O)NC(=O)[C@H](CC(C)C)NC(=O)[C@H](Cc1ccccc1)NC(=O)[C@@H](NC(=O)[C@@H](NC(=O)[C@H](CC(N)=O)NC(=O)[C@@H](NC(=O)[C@H](CCC(N)=O)NC(=O)[C@H](CC(=O)O)NC(=O)[C@H](CC(C)C)NC(=O)[C@@H](N)CO)[C@@H](C)CC)C(C)C)[C@@H](C)O)C(=O)N[C@@H](CCCCN)C(=O)N[C@@H](CCCCN)C(=O)N[C@@H](CC(C)C)C(=O)N[C@@H](CCC(=O)O)C(=O)N[C@@H](CCC(=O)O)C(=O)N[C@@H](CO)C(=O)N[C@@H](Cc1ccc(O)cc1)C(=O)N[C@H](C(=O)N[C@@H](CC(=O)O)C(=O)N[C@@H](CC(C)C)C(=O)N[C@@H](CCCCN)C(=O)N[C@@H](CCC(=O)O)C(=O)N[C@@H](CC(C)C)C(=O)O)[C@@H](C)CC [EK1, reference compound] | very good inhibitory effect | formation of a six-helix bundle complex | formed a 6-HB complex | 573 nM | significantly reduce | significantly reduce | 2490 nM | 1890 nM | 4000 nM | 2940 nM | – | – | – | – | – |
| CC[C@H](C)[C@H](NC(=O)[C@H](C)NC(=O)[C@H](CCC(=O)O)NC(=O)[C@H](CCC(=O)O)NC(=O)[C@H](CC(C)C)NC(=O)[C@H](CCCCN)NC(=O)[C@H](CCCCN)NC(=O)[C@H](CCSC)NC(=O)[C@H](CCC(=O)O)NC(=O)[C@H](Cc1ccc(O)cc1)NC(=O)[C@H](CCC(=O)O)NC(=O)[C@H](CC(C)C)NC(=O)[C@H](CC(=O)O)NC(=O)[C@H](CC(C)C)NC(=O)[C@H](Cc1ccccc1)NC(=O)[C@@H](NC(=O)[C@@H](NC(=O)[C@H](CC(N)=O)NC(=O)[C@@H](NC(=O)[C@H](CCC(N)=O)NC(=O)[C@H](CC(=O)O)NC(=O)[C@H](CC(C)C)NC(=O)[C@@H](N)CO)[C@@H](C)CC)C(C)C)[C@@H](C)O)C(=O)N[C@@H](CCCCN)C(=O)N[C@@H](CCCCN)C(=O)N[C@@H](CC(C)C)C(=O)N[C@@H](CCC(=O)O)C(=O)N[C@@H](CCC(=O)O)C(=O)N[C@@H](CO)C(=O)N[C@@H](Cc1ccc(O)cc1)C(=O)N[C@H](C(=O)N[C@@H](CC(=O)O)C(=O)N[C@@H](CC(C)C)C(=O)N[C@@H](CCCCN)C(=O)N[C@@H](CCC(=O)O)C(=O)N[C@@H](CC(C)C)C(=O)NCC(=O)N[C@@H](CO)C(=O)NCC(=O)N[C@@H](CO)C(=O)NCC(=O)NCCOCCOCCOCCOCCC(=O)N[C@@H](CSCC(=O)O[C@H]1CC[C@@]2(C)C(=CC[C@H]3[C@@H]4CC[C@H]([C@H](C)CCCC(C)C)[C@@]4(C)CC[C@@H]32)C1)C(=O)O)[C@@H](C)CC [EK1-chol] | very good inhibitory effect | – | – | 5.5 nM | – | – | 20 nM | 10 nM | 30 nM | 40 nM | significantly reduce | significantly reduce | 36.5 nM | 67 times | – |
| CCCCCCCCCCCCCCCC(=O)NCCCC[C@H](NC(=O)CCOCCOCCOCCOCCNC(=O)CNC(=O)[C@H](CO)NC(=O)CNC(=O)[C@H](CC(C)C)NC(=O)[C@H](CCC(=O)O)NC(=O)[C@H](CCCCN)NC(=O)[C@H](CC(C)C)NC(=O)[C@H](CC(=O)O)NC(=O)[C@@H](NC(=O)[C@H](Cc1ccc(O)cc1)NC(=O)[C@H](CO)NC(=O)[C@H](CCC(=O)O)NC(=O)[C@H](CCC(=O)O)NC(=O)[C@H](CC(C)C)NC(=O)[C@H](CCCCN)NC(=O)[C@H](CCCCN)NC(=O)[C@@H](NC(=O)[C@H](C)NC(=O)[C@H](CCC(=O)O)NC(=O)[C@H](CCC(=O)O)NC(=O)[C@H](CC(C)C)NC(=O)[C@H](CCCCN)NC(=O)[C@H](CCCCN)NC(=O)[C@H](CCSC)NC(=O)[C@H](CCC(=O)O)NC(=O)[C@H](Cc1ccc(O)cc1)NC(=O)[C@H](CCC(=O)O)NC(=O)[C@H](CC(C)C)NC(=O)[C@H](CC(=O)O)NC(=O)[C@H](CC(C)C)NC(=O)[C@H](Cc1ccccc1)NC(=O)[C@@H](NC(=O)[C@@H](NC(=O)[C@H](CC(N)=O)NC(=O)[C@@H](NC(=O)[C@H](CCC(N)=O)NC(=O)[C@H](CC(=O)O)NC(=O)[C@H](CC(C)C)NC(=O)[C@@H](N)CO)[C@@H](C)CC)C(C)C)[C@@H](C)O)[C@@H](C)CC)[C@@H](C)CC)C(=O)O [EK1-plam] | very good inhibitory effect | – | – | – | – | – | 360 nM | 170 nM | 130 nM | 100 nM | – | – | 436 nM | 5 times | – |
| ANQFNSAIGKIQDSLSSTASALGKLQDVVNQNAQALNTLVKQ (SEQ ID NO. 3) [2019-HR1P, reference compound] | no activity | – | – | – | – | – | – | – | – | – | – | – | – | – | no activity |
